One block for each compound: values may come before it.
Legend:
Experiment in all cases: competitive isoTOP-ABPP
Assay type in all cases: binding
[1] = biological target: T1, AP1G1 AP-1 complex subunit gamma-1 (Homo sapiens, UniProt O43747); settings: for isoTOP-ABPP ratio (R) at liganded lysine O43747_K214 / R value (DMSO/fragment) for probe 1 labeling / isoTOP-ABPP reactivity ratio at lysine O43747_K214: 50 uM, in vitro; for isoTOP-ABPP ratio (R) at liganded lysine O43747_K214: sol, 231; for R value (DMSO/fragment) for probe 1 labeling: O43747_K214; for R value (DMSO/fragment) for probe 1 labeling / isoTOP-ABPP reactivity ratio at lysine O43747_K214: 231 sol; for isoTOP-ABPP ratio, lysine O43747_K214: 50 uM_231_sol_in vitro
T1 construct: isoTOP-ABPP experiments performed in cell lysates (in vitro); endogenous in cells; host or cells: MDA-MB-231 soluble lysate
T1 sequence (O43747 1-822): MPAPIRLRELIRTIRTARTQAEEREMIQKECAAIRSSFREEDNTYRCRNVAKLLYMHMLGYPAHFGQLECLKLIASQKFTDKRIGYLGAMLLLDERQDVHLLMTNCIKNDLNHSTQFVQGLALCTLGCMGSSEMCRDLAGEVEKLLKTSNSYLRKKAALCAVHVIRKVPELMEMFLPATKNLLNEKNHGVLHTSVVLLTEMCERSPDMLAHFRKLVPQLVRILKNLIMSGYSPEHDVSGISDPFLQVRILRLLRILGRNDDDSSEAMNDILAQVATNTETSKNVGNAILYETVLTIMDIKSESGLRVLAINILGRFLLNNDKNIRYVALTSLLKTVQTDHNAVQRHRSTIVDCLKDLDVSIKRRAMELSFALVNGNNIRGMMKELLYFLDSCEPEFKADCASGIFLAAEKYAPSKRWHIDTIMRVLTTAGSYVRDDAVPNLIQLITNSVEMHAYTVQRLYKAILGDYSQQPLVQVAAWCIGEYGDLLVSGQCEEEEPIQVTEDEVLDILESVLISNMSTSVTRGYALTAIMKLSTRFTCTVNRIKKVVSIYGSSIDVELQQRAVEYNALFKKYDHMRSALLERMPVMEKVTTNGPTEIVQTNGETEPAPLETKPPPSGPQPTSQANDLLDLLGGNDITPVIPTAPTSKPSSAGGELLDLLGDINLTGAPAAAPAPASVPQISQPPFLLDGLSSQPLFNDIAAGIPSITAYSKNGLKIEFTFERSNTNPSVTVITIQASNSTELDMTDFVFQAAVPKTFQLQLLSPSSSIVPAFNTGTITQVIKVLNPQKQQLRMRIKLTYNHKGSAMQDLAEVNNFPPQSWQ
Outline: (§1)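 Competition format: fragment (50 μM activated ester, 100 μM guanidinylating agent) versus vehicle in lysate, then lysine probe STP-alkyne at 0.1 mM for 1 h. Quantitation by light/heavy TEV-tag MS1 peak areas, reported as R.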

[2] = biological target: T2, RINT1 RAD50-interacting protein 1 (Homo sapiens, UniProt Q6NUQ1); settings: for isoTOP-ABPP ratio (R) at liganded lysine Q6NUQ1_K771 / R value (DMSO/fragment) for probe 1 labeling / isoTOP-ABPP reactivity ratio at lysine Q6NUQ1_K771: 50 uM, in vitro; for isoTOP-ABPP ratio (R) at liganded lysine Q6NUQ1_K771: sol, 231; for R value (DMSO/fragment) for probe 1 labeling: Q6NUQ1_K771; for R value (DMSO/fragment) for probe 1 labeling / isoTOP-ABPP reactivity ratio at lysine Q6NUQ1_K771: 231 sol; for isoTOP-ABPP ratio, lysine Q6NUQ1_K771: 50 uM_231_sol_in vitro
T2 construct: isoTOP-ABPP experiments performed in cell lysates (in vitro); endogenous in cells; host or cells: soluble proteome of human cancer cell lines (MDA-MB-231; Ramos and Jurkat also prepared)
T2 sequence (Q6NUQ1 whole entry, the tested form may be a part): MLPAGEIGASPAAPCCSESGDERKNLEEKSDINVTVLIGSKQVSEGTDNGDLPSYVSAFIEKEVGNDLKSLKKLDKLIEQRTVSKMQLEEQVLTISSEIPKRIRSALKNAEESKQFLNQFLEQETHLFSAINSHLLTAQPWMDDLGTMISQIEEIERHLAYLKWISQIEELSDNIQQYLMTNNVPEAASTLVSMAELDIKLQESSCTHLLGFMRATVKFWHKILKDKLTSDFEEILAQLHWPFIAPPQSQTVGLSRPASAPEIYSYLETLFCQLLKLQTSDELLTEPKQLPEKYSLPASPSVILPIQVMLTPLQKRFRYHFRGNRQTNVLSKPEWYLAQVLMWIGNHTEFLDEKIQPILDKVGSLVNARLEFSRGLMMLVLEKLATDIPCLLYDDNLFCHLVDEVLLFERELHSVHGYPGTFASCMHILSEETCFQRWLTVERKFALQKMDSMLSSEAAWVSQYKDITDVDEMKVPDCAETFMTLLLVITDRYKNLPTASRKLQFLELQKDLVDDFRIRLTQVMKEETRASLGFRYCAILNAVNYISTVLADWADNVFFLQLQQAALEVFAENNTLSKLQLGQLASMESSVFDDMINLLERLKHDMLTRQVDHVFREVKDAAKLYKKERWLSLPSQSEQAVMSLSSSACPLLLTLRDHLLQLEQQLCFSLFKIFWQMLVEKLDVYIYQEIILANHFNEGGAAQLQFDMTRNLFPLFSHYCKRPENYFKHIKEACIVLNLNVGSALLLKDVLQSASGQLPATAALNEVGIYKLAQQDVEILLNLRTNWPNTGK
Outline: as §1

[3] = biological target: T3, TRMT10C Mitochondrial ribonuclease P protein 1 (Homo sapiens, UniProt Q7L0Y3); settings: for isoTOP-ABPP ratio (R) at liganded lysine Q7L0Y3_K325: sol, 231; for R value (DMSO/fragment) for probe 1 labeling: Q7L0Y3_K325
T3 construct: isoTOP-ABPP experiments performed in cell lysates (in vitro); endogenous in cells; host or cells: soluble proteome of human cancer cell lines (MDA-MB-231; Ramos and Jurkat also prepared)
T3 sequence (Q7L0Y3 40-403): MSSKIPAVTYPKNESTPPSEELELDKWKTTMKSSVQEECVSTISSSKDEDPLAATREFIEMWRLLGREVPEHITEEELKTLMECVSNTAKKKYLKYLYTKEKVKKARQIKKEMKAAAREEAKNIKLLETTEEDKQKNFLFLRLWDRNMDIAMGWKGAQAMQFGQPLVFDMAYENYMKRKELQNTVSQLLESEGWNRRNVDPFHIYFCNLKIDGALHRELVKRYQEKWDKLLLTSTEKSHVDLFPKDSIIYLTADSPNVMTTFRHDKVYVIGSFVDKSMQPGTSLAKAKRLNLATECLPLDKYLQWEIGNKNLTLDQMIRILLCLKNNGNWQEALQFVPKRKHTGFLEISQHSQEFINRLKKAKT
Outline: as §1

Structure (SMILES): CC(C)(C)OC(=O)NCCCC(=O)Oc1ccc([N+](=O)[O-])cc1[N+](=O)[O-] [fragment 41, 2,4-Dinitrophenyl 4-((tert-butoxycarbonyl)amino)butanoate]
isoTOP-ABPP ratio (R) at liganded lysine O43747_K214 [1]: 1.0 | isoTOP-ABPP ratio (R) at liganded lysine Q6NUQ1_K771 [2]: 0.8 | isoTOP-ABPP ratio (R) at liganded lysine Q7L0Y3_K325 ([3]; 50 uM, in vitro): 0.9

Structure (SMILES): O=C(Oc1ccc([N+](=O)[O-])cc1[N+](=O)[O-])c1ccc(-c2ccccc2)cc1 [fragment 37, 2,4-Dinitrophenyl [1,1′-biphenyl]-4-carboxylate]
isoTOP-ABPP ratio (R) at liganded lysine O43747_K214 [1]: 0.9 | isoTOP-ABPP ratio (R) at liganded lysine Q6NUQ1_K771 [2]: 1.3 | isoTOP-ABPP ratio (R) at liganded lysine Q7L0Y3_K325 ([3]; 50 uM, in vitro): 1.0

Structure (SMILES): COc1cc(CCC(=O)Oc2ccc([N+](=O)[O-])cc2[N+](=O)[O-])cc(OC)c1OC [fragment 33, 2,4-Dinitrophenyl 3-(3,4,5-trimethoxyphenyl)propanoate]
isoTOP-ABPP reactivity ratio at lysine O43747_K214 [1]: 1.7 | isoTOP-ABPP reactivity ratio at lysine Q6NUQ1_K771 [2]: 1.0 | isoTOP-ABPP reactivity ratio at lysine Q7L0Y3_K325 ([3]; 50 uM, 231 sol, in vitro): 0.9

Structure (SMILES): O=C(Oc1ccc([N+](=O)[O-])cc1[N+](=O)[O-])c1ccc2ccccc2n1 [fragment 35, 2,4-Dinitrophenyl quinoline-2-carboxylate]
isoTOP-ABPP ratio (R) at liganded lysine O43747_K214 [1]: 1.0 | isoTOP-ABPP ratio (R) at liganded lysine Q6NUQ1_K771 [2]: 1.7 | isoTOP-ABPP ratio (R) at liganded lysine Q7L0Y3_K325 ([3]; 50 uM, in vitro): 1.0

Structure (SMILES): O=C(CCc1ccc2c(c1)OCO2)Oc1ccc([N+](=O)[O-])cc1[N+](=O)[O-] [fragment 45, 2,4-Dinitrophenyl 3-(benzo[d][1,3]dioxol-5-yl)propanoate]
isoTOP-ABPP ratio, lysine O43747_K214 [1]: 1.2 | isoTOP-ABPP ratio, lysine Q6NUQ1_K771 [2]: 1.0 | isoTOP-ABPP ratio, lysine Q7L0Y3_K325 ([3]; 50 uM_231_sol_in vitro): 1.0

Structure (SMILES): O=C(CCc1coc2cc(F)ccc2c1=O)Oc1ccc([N+](=O)[O-])cc1[N+](=O)[O-] [fragment 36, 2,4-Dinitrophenyl 3-(7-fluoro-4-oxo-4H-chromen-3-yl)propanoate]
isoTOP-ABPP ratio (R) at liganded lysine O43747_K214 [1]: 1.1 | isoTOP-ABPP ratio (R) at liganded lysine Q6NUQ1_K771 [2]: 0.9

The next lines start with the values.

R value (DMSO/fragment) for probe 1 labeling [1]: 1.1 | R value (DMSO/fragment) for probe 1 labeling [2]: 1.0 | R value (DMSO/fragment) for probe 1 labeling ([3]; 50 uM, 231 sol, in vitro): 1.1
Structure (SMILES): Cn1cc(CC(=O)Oc2c(F)c(F)c(F)c(F)c2F)c2ccccc21 [fragment 22, Pentafluorophenyl 2-(1-methyl-1H-indol-3-yl)acetate]

R value (DMSO/fragment) for probe 1 labeling [1]: 0.9 | R value (DMSO/fragment) for probe 1 labeling [2]: 1.0 | R value (DMSO/fragment) for probe 1 labeling ([3]; 50 uM, 231 sol, in vitro): 1.1
Structure (SMILES): O=C(Oc1c(F)c(F)c(F)c(F)c1F)C(c1ccccc1)c1ccccc1 [fragment 20, Pentafluorophenyl 2,2-diphenylacetate]

isoTOP-ABPP reactivity ratio at lysine O43747_K214 [1]: 0.9 | isoTOP-ABPP reactivity ratio at lysine Q6NUQ1_K771 [2]: 1.1
Structure (SMILES): O=C(CN1C(=O)c2ccccc2C1=O)Oc1c(F)c(F)c(F)c(F)c1F [fragment 27, Pentafluorophenyl 2-(1,3-dioxoisoindolin-2-yl)acetate]

isoTOP-ABPP reactivity ratio at lysine O43747_K214 [1]: 1.1 | isoTOP-ABPP reactivity ratio at lysine Q6NUQ1_K771 [2]: 0.9
Structure (SMILES): O=C(CCc1coc2cc(F)ccc2c1=O)Oc1c(F)c(F)c(F)c(F)c1F [fragment 26, Pentafluorophenyl 3-(7-fluoro-4-oxo-4H-chromen-3-yl)propanoate]

isoTOP-ABPP reactivity ratio at lysine O43747_K214 [1]: 1.0 | isoTOP-ABPP reactivity ratio at lysine Q6NUQ1_K771 [2]: 0.8
Structure (SMILES): CCn1cc(C(=O)Oc2c(F)c(F)c(F)c(F)c2F)c(=O)c2ccc(C)nc21 [fragment 28, Pentafluorophenyl 1-ethyl-7-methyl-4-oxo-1,4-dihydro-1,8-naphthyridine-3-carboxylate]

R value (DMSO/fragment) for probe 1 labeling [1]: 1.0 | R value (DMSO/fragment) for probe 1 labeling [2]: 1.2
Structure (SMILES): O=C(CCc1cn(-c2ccccc2)nc1-c1ccccc1)Oc1c(F)c(F)c(F)c(F)c1F [fragment 19, Pentafluorophenyl 3-(1,3-diphenyl-1H-pyrazol-4-yl)propanoate]

isoTOP-ABPP ratio, lysine O43747_K214 [1]: 0.8 | isoTOP-ABPP ratio, lysine Q6NUQ1_K771 [2]: 4.8
Structure (SMILES): O=C(Oc1c(F)c(F)cc(F)c1F)c1cc(C(F)(F)F)cc(C(F)(F)F)c1 [fragment 48, 2,3,5,6-Tetrafluorophenyl 3,5-bis(trifluoromethyl)benzoate]
